Source: patent publication US9181253B2 (The United States of America, as represented by the …, priority 2008, dated 2015)
Like-named read-outs stand apart in the source and are kept apart here. Marks after values point to notes of the source that are not given here.

Key:
human A3 receptor = human A3 receptor (Homo sapiens (Human), UniProt P0DMS8); assay: Binding assay at the human A3 receptor (Example 2); conditions: CHO cells expressing human A3AR; radioligand [125I]I-AB-MECA; n = 3-5; read-out: Affinity (Ki, nM) A3
human A3 receptor, sequence (P0DMS8 whole entry): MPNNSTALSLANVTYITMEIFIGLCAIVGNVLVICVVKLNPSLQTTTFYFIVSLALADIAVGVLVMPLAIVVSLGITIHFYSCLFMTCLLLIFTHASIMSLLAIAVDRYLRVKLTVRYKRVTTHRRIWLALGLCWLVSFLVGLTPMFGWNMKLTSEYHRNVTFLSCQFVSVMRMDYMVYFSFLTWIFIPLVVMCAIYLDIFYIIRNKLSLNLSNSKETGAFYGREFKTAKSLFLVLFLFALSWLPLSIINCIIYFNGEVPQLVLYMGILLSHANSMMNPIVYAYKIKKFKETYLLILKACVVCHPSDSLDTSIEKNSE

human A3AR [1] = biological target: T1, human A3AR (Homo sapiens (Human), UniProt P0DMS8); assay: [35S]GTPγS binding assay, membranes of CHO cells expressing human A3AR; assay type: biochemical
T1 sequence (P0DMS8 whole entry): as above

human A3AR [2] = biological target: T1, human A3AR; assay: Cyclic AMP accumulation / adenylate cyclase assay, CHO cells expressing hA3AR; assay type: cell-based
hA1AR [3] = biological target: T2, hA1AR (Homo sapiens (Human), UniProt P30542); assay: Radioligand membrane binding at hA1AR (Example 6)
T2 sequence (P30542 whole entry): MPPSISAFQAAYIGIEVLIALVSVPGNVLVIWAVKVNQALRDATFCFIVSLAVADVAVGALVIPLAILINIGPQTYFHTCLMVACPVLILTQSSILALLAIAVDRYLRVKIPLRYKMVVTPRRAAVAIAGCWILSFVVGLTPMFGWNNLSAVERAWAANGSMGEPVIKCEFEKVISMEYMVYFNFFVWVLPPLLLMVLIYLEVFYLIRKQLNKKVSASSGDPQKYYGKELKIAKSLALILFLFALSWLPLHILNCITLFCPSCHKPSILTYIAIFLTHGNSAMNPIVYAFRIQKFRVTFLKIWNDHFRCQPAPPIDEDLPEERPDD
Protocol: (§1) In addition, 800 μg/mL Geneticin and 500 μg/mL hygromycin were added to the A2A media and to the A1 and A3 media, respectively. […] The concentration of protein was determined using a BCA Protein Assay Kit from Pierce Biotechnology (Rockford, Ill.).
(§2) Radioligand binding assays at A1, A2A, and A3ARs were performed according to the procedures described previously.
(§3) All of the filters were washed 3 times with Tris-HCl, pH 7.5. […] Filters for A3AR binding were counted using a PerkinElmer Cobra II γ-counter.
(§4) Binding and functional parameters were calculated using Prism 5.0 software (GraphPAD, San Diego, Calif., USA). IC50 values obtained from competition curves were converted to Ki values using the Cheng-Prusoff equation. Data were expressed as mean±standard error.

hA2AAR [4] = biological target: T3, hA2AAR (Homo sapiens (Human), UniProt P29274); assay: Radioligand membrane binding at hA2AAR (Example 6); conditions: HEK293 cells expressing hA2AAR; [3H]CGS21680; n = 3-5; read-out: Affinity Ki, nM A2A
T3 sequence (P29274 whole entry): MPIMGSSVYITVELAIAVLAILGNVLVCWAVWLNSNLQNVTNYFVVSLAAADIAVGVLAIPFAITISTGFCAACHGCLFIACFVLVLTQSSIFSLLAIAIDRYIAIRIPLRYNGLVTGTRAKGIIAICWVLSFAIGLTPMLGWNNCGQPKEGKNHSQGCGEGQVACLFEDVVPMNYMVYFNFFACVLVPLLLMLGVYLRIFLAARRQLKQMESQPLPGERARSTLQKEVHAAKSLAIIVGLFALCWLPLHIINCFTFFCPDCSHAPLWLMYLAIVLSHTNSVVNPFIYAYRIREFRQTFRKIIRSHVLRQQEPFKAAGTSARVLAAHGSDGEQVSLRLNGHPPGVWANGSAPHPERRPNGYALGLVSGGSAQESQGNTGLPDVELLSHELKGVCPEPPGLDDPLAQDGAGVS
Protocol: as §1, §2, §3, §4

hA1AR [5] = biological target: T2, hA1AR; assay: A1AR functional assay, inhibition of forskolin-stimulated cyclic AMP production in AR-transfected CHO cells; assay type: cell-based; conditions: FIG. 12, compared to full agonist NECA
[6] = tested on: seizures induced by 6 Hz corneal stimulation in mice; assay: 6 Hz minimal clonic seizure test; assay type: in vivo
Protocol: (§5) For the MES and 6 Hz tests, a drop of anesthetic/electrolyte solution (0.5% tetracaine hydrochloride in 0.9% saline) was applied to the eyes of each animal prior to placement of the corneal electrodes. The electrical stimulus in the MES test was 50 mA, 60 Hz, for mice. Abolition of the hindleg tonic extensor component of the seizure was used as the endpoint.
The ability of the test substance to prevent seizures induced by 6 Hz corneal stimulation (32 mA, 3 sec duration) in mice was evaluated at a convulsive current that evokes a seizure in 97% of the population tested (CC97). Six Hz seizures are characterized by a minimal clonic phase that is followed by stereotyped, automatistic behaviors described originally as being similar to the aura of human patients with partial seizures. Toman, J. E. et al., Tex. Rep.
Animals not displaying this behavior were considered protected.

MES seizures in mice = assay: Maximal electroshock (MES) seizure test; assay type: in vivo; conditions: i.p.
Protocol: The electrical tests used were the maximal electroshock (MES) seizure test, the 6 Hz minimal clonic seizure test, and the corneal kindled mouse test. The chemical test was the s.c. metrazol seizure tests. Time of peak effect (TPE) is deduced from data generated in initial qualitative test procedures. Five groups of 4 animals each are administered the test compound, and each group is tested at one of five different time intervals: ¼, ½, 1, 2 and 4 h. The time point at which the compound produces the most activity/toxicity was chosen as TPE.
as §5

[7] = tested on: s.c. metrazol seizures in mice; assay: s.c. metrazol (scMET) seizure test; assay type: in vivo; conditions: i.p.
Source text: In vivo anticonvulsant activity was established by both electrical and chemoconvulsant seizure tests which have been described previously. White, H. S., et al., Ital. J. Neurol. […] White, H. S. et al., Antiepileptic Drugs ([…].; Meldrum, B. S. ed), 1995, pp 99-110, Raven Press, New York.; and Smith, M., et al., Neurotherapeutics 2007, 4, 12-17. The electrical tests used were the maximal electroshock (MES) seizure test, the 6 Hz minimal clonic seizure test, and the corneal kindled mouse test. The chemical test was the s.c. metrazol seizure tests. Time of peak effect (TPE) is deduced from data generated in initial qualitative test procedures. […] The time point at which the compound produces the most activity/toxicity was chosen as TPE.

corneal kindled mice = assay: Corneal-kindled mouse model of partial seizures; assay type: in vivo; conditions: qualitative test, 3 mg/kg, 1 hour post injection, n=4
Source text: Mice were kindled according to the methods described by […] and […]; […] Louis, Mo.) was applied to the cornea to ensure local anesthesia and good electrical conductivity. Stimulations were at least four hours apart. […] See Racine, R., Electroencephalogr. Clin. Neurophysiol. 1972, pp. 281-294. At the completion of the kindling acquisition, mice were permitted at least a 3-day stimulation-free period prior to any drug testing. Mice were stimulated once the day before drug testing to ensure they had achieved and maintained a kindled state. On the day of the drug study, corneal kindled mice (n=4, or 8) received a single i.p. dose of test compound. Mice were challenged with the corneal kindling stimulus of 3 mA for 3 seconds at TPE after test compound administration. Mice were scored as protected (seizure score of ≦3) or not protected, (seizure score ≧4) based on the Racine scoring.

in vivo = conditions: mouse, ip
mice = assay: Minimal behavioral toxicity test, rotorod procedure; conditions: i.p.
hA1AR [8] = biological target: T2, hA1AR; conditions: values from literature references; read-out: Affinity Ki, nM A1; cited from earlier work
hA2AAR [9] = biological target: T3, hA2AAR; conditions: values from literature references; read-out: Affinity Ki, nM A2A; cited from earlier work
hA3AR = hA3AR (Homo sapiens (Human), UniProt P0DMS8); conditions: values from literature references; read-out: Affinity Ki, nM A3; cited from earlier work
hA3AR, sequence (P0DMS8 whole entry): as the sequence (P0DMS8 whole entry) above

O[C@@H]1[C@H](O)[C@@H]2C[C@@H]2[C@H]1n1cnc2c(NCc3cccc(I)c3)nc(Cl)nc21 [Compound 7b, (1′R,2′R,3′S,4′R,5′S)-4′-[2-Chloro-6-(3-iodobenzylamino)purine]-2′,3′-O-dihydroxybicyclo-[3.1.0]hexane]
Ki (human A3 receptor): 1.44 ± 0.6 nM | IC50 (human A3AR [1]; read-out: IC50, inhibition of [35S]GTPγS binding stimulated by NECA, stimulation by 1 μM NECA): 29.8 nM | % Efficacy A3 (human A3AR [1]; stimulation measured by [35S]GTPγS binding assay): 1.0 ± 3.2% | EC50 (human A3AR [2]; partial agonism, read-out: EC50 at A3AR, cAMP assay): 12 ± 1 nM | Kb (human A3AR [2]; right shifts of response curves in the inhibition of adenylate cyclase by NECA, read-out: KB value, Schild analysis): 8.9 nM

O[C@@H]1[C@H](O)[C@@H]2C[C@@H]2[C@H]1n1cnc2c(NC(C3CC3)C3CC3)nc(Cl)nc21 [Compound 121, (1R,2R,3S,4R,5S)-4-(2-Chloro-6-(dicyclopropylmethylamino)-9H-purin-9-yl)bicyclo[3.1.0]hexane-2,3-diol]
times less potent at the A1AR in in vitro binding compared to 235b (hA1AR [3]): ~40 times | Ki (hA1AR [3]; CHO cells expressing hA1AR, [3H]R-PIA, n = 3-5, read-out: Affinity Ki, nM A1): 47.9 ± 10.5 nM | Ki (hA2AAR [4]): 3950 ± 410 nM | agonist character at A1 AR, concentration-response curve of inhibition of cyclic AMP production (hA1AR [5]): full agonist | ED50 ([6]; Mus musculus, ip, mice, i.p., measured at 1 h post injection, read-out: 6 Hz model ED50): 2.74 mg/kg | ED50 in antiseizure models, times less potent compared to 235b ([6]; mouse, in vivo): about 20 times | MES model, number of animals protected from convulsions (MES seizures in mice; 3 mg/kg): 1 out of 4 | scMET model, number of animals protected from convulsions ([7]; 3 mg/kg): No protection | corneal kindled mouse model, animals protected (corneal kindled mice): all animals (n=4) were protected | TD50 (in vivo): > 10 mg/kg | Behavioral toxicity TD50 (mice): >10 mg/kg

NCCNC(=O)Cc1ccc(NC(=O)Cc2ccc(Nc3ncnc4c3ncn4[C@@H]3O[C@H](CO)[C@@H](O)[C@H]3O)cc2)cc1 [Compound 237]
6 Hz model ED50 ([6]; mice, i.p., measured at 1 h post injection): 0.03^c mg/kg | MES model, number of animals protected from convulsions (MES seizures in mice; 2 mg/kg): 4 out of 8 | scMET model, number of animals protected from convulsions ([7]; 1 mg/kg): 5 out of 8 | Ki (hA1AR [8]): 10.4 ± 3.8 nM | Ki (hA2AAR [9]): 370 ± 100 nM | Ki (hA3AR): 12.4 ± 4.1 nM | Behavioral toxicity TD50 (mice; measured at 4 h post injection): 0.14^d mg/kg
